One series concerns Sprague-Dawley rats. Nature of the series: In vivo sedative/hypnotic testing, IV bolus, rats. The settings on record: rats. Set-up: species or system rat. As to the method: Animals were housed in a dedicated room at the vivarium of VivoPath Inc., located at Redstone Center, 55 Union Street, Worcester, Mass. Housing and care was as specified in the USDA Animal Welfare Act (9 CFR, Parts 1, 2, and 3) and as described in the Guide for the Care and Use of Laboratory Animals from the National Research Council. Environmental conditions of housing rooms are set at the following ranges: temperature: 70±7° F. (22±4° C.), humidity: 50±20%, light cycle: 12-hour light/12-hour dark cycle—lights on at 7 am and off at 7 pm., air changes: ten or more air changes per hour with 100% fresh air. The animals' body weights were measured prior to the first dose on each experimental day.
Adult male Sprague-Dawley rats (225-300 g) were purchased from Harlan (South Easton, Mass.).
Drugs were prepared in either dimethylsulfoxide/saline or saline vehicle or hydroxypropyl-β-cyclodextrin (20% in water, pH 7.0) solution and were administered as an intravenous bolus injection. Animals received 1-4 doses of drug(s) during an experimental day, either ascending doses or different drugs. Doses were administered at intervals equal to the longer of 1 h or 10-times the duration of apparent sedative/hypnotic effects from the previous dose. The sedative/hypnotic properties of the drugs were evaluated by observation of the rats, ranging from mild excitation, mild sedation apparent due to reduced activity, and moderate sedation to hypnosis reflected by loss of righting reflex (LORR, the ability to place rear and hind legs under the body, as well as attenuation/loss of nociceptive reflexes).

For a further series, the system named is GABAA receptor channel. Nature of the series: radioligand binding to the GABAA receptor channel. The settings on record: 10 μM.
The test system of series [1] is adrenal cortisol production. As to the method:
Dexamethasone (0.01 mg/kg) was administered two hours before the first administration of ACTH and re-administered every 2 hours to maintain suppression. Dexamethasone pretreatment suppresses the hypothalamo-hypophyseal axis to prevent endogenous ACTH release and subsequent adrenocortical steroid secretion. […] Synthetic ACTH (Synacthen, 250 μg) was then administered at times after test substance administration to evaluate the effects of the test substance on the release of the adrenal steroid, cortisol.
All study methods described for Study 1 were repeated, except the ACTH administration at the end of infusion was omitted.

Series [2] in a line: Pharmacokinetics in dogs, IV bolus and bolus plus infusion. The class given is in vivo, dog.
Series [3] is described as follows: In vitro metabolic half-life of hypnotics in rat blood. It counts as in vitro ADME. The settings on record: rat. As to the method:
On the day of study, whole blood was drawn from the femoral venous catheters of 3 Sprague-Dawley rats (1-2 ml/rat), immediately anticoagulated with heparin (38 U), pooled, and stored on ice. A 1 ml aliquot of blood was warmed at 37° C. for 5 minutes and hypnotic (from a 40 mM in dimethyl sulfoxide stock solution) was added to a final concentration of 100 μM. After the desired incubation time, a 150 μl sample was removed and the metabolic reaction was quenched with 150 μl acetonitrile (Sigma-Aldrich, St. Louis, Mo.). Zero time point samples were prepared by adding 150 μl acetonitrile to blood prior to adding hypnotic (from a 4 mM in dimethyl sulfoxide stock solution). The quenched samples were centrifuged and the resultant supernatant separated and stored at −20° C. until analyzed. Hypnotic concentrations in thawed samples were determined by high performance liquid chromatography using a Varian Prostar system with a 4.6×250 mm Proto 300 C18 column (Nest Group, Southborough, Mass.) with the UV detector set at 240 nm.

The nature of a further series: in vivo. The settings on record: rat.
A further series deals with beagle dogs. As for the experimental part:
A pilot study was conducted in dogs to assess anesthesia induced by cyclopropyl-MOC-metomidate continuous infusion without a bolus induction dosing. Two dogs received cyclopropyl-MOC-metomidate as a 1 mg/kg/min IV infusion without prior bolus administration.
Anesthesia induction was determined using the methods described above.
Etomidate was administered to dogs at IV bolus doses ranging from 0.25 to 2 mg/kg. Anesthesia in the dogs was measured as described above. […] The bolus dose of 2 mg/kg was adopted to induce anesthesia prior to subsequent continuous infusions.
Propofol was administered to dogs as an IV bolus dose of 5 mg/kg to induce anesthesia followed by a continuous infusion at 0.4 mg/kg/min.

Where [4] appears, read: dogs, 4 mg/kg bolus or bolus plus 0.5 mg/kg/min for 30 or 120 minutes.

The values below come from patent publication US10154991B2, “Anesthetic compounds and related methods of use” (priority 2012, dated 2018).

The structures appear in SMILES notation. “And” between values parts separate entries of the source, which are not always exact repeats. Equal entries are not always repeated.

With `COC(=O)C1(OC(=O)c2cncn2[C@H](C)c2ccccc2)CC1` [Cyclopropyl- methoxycarbonyl metomidate, cyclopropyl-methoxycarbonyl metomidate], the “slope of duration of LORR vs logarithm of dose” value in the series with Sprague-Dawley rats is “approximately 10”. In addition, in the series on GABAA receptor channel, the “effect on binding of [3H]-flunitrazepam” value is reported as “no effect”. Further, the “effect on binding of [3H]-muscimol” value in the series with GABAA receptor channel is “no effect”. In addition, the “ACTH-induced plasma cortisol response” value in series [1] (Study 1, dogs, after 120-minute infusion) is “cortisol response to the first ACTH stimulus was inhibited, but the response to the second and third ACTH stimuli at 90 and 180 minute post-infusion were robust”. The “return of normal adrenal responsiveness after cessation of infusion” value in series [1] (dogs) fell in the range of 1.5 to 3 h. Further, the “first-phase decline of levels” value in series [2] (IV bolus 0.25-12 mg/kg, first 5-10 minutes) is recorded as over 10 fold. In addition, the “venous blood concentration when sedated/anesthetized” value in series [2] (bolus and continuous infusion, listed as cyclopropyl-MOC-metomidate) is > 250 ng/mL and > 0.8 μM. Also, the concentration at 24 h in series [2] (both sexes, dog, in vivo, IV bolus, read-out: level in 24-hour PK samples (below level of quantification)) is under 0.1 ng/mL; in the series “in vivo” (both, iv), under 0.1 ng/mL. Also, the half-life (commonly how long it takes for the measured level to halve) in series [2] (both sexes, dog, in vivo, IV bolus, read-out: secondary terminal elimination half-life) is 5 to 10 min; in series [2] (dog, in vivo, read-out: half-life of secondary phase of decline after infusion) it was about 20 min; in the series “in vivo” (both, iv) it was about 10 min; in “in vivo”, about 20 min. The “decline of levels after discontinuation of infusion” value in series [2] (first 10-30 minutes after infusion) is about 50 fold. Besides, the half-life at 100 μM in series [3] (Sprague-Dawley, pooled heparinised whole blood, rat blood, 37° C., 100 μM, read-out: Blood Half-Life (95% CI)) was 0.57 min. Besides, the “in vitro metabolic half-life compared with methoxycarbonyl etomidate and etomidate” value in series [3] is “intermediate between those of methoxycarbonyl etomidate and etomidate”. In addition, the “minimum effective continuous infusion dose rate (infusion MED)” value in the series with beagle dogs (dogs) is recorded as “approximately 0.5 mg/kg/min”. In addition, the emergence from anesthesia result in the series on beagle dogs (setting [4]) was “approximately 5 minutes”. Besides, the “recovery of apparently normal behavior” value in the series with beagle dogs (setting [4]) was in the range of 10 to 12 min. Besides, in the series on beagle dogs (dogs, IV bolus), the “minimally effective anesthetic dose (MED)” value is given as “approximately 1 mg/kg”. The duration of anesthesia in the series with beagle dogs (dogs, bolus dose of 3 or 4 mg/kg) was 3 to 6 min. The “context dependence of recovery from anesthesia” value in the series with beagle dogs (dogs, bolus vs 30- or 120-minute infusion) was “context-independent”. Besides, in the series with beagle dogs (two dogs, 1 mg/kg/min IV infusion without bolus), the “anesthesia onset after initiation of infusion” value lay within 2.5 to 4.0 min.
